Reference: US20250027041A1, “COMPOSITION FOR INDUCING TRANSDIFFERENTIATION AND STEM CELLS TREATED THEREWITH” (YJ CERAPEUTICS INC., priority 2021, published 2025)

Assays:
CtBP1-CtBP2 = molecular target: T1, CtBP1-CtBP2 (Homo sapiens, UniProt P56545+Q13363); assay: Immunoprecipitation, CtBP1-CtBP2 heteromerization in UCB-MSCs; type: cell-based; details: YJ102 20 μM; FLAG-CtBP2 + HA-CtBP1
T1 construct: expressed in transfected cells; host or cells: human UCB-MSC
Experimental: (§1) To determine the effect of YJ102 on the regulation of oligomerization of C-terminal Binding Proteins (CtBPs) in human UCB-MSCs, immunoprecipitation analysis was performed. Specifically, UCB-MSCs were dispensed at 4×10^5 cells/ml in a 60 mm culture dish, and the next day, FLAG-CtBP1, HA-CtBP1, FLAG-CtBP2, and HA-CtBP1 were transfected into cells using 4 μl jetPRIME. Thereafter, the cells were treated with YJ102 (stock 30 mM in DMSO) and MTOB (stock 300 mM in DMSO) at 20 μM and 300 μM, respectively (Table 1). After 48 hours of transfection, proteins were extracted in the same manner as in Example 1-1. Protein G agarose slurry was washed with PBS and blocked with 1 ml of 1% BSA, washed with PBS, and added with 1 μg of anti-HA antibody diluted with 1.5 ml of PBS and incubated at 4° C. for 2 hours. Thereafter, the cells were centrifuged at 3,000×g for 2 minutes to remove the supernatant, washed with an IP150 buffer two times, added with 1 μg of the protein extracted above, and incubated at 4° C. overnight. After incubation, the cells were centrifuged at 3,000×g for 2 minutes to remove the supernatant, washed with PBS three times, added with 50 μl of 1 mg/ml HA peptide diluted with PBS, and incubated at room temperature for 10 minutes. […]

UCB-MSC (Promo Cell) = assay: Tuj1 immunochemical assay, UCB-MSC (Promo Cell); type: cell-based, human; details: 10, 20 or 30 μM, 5 days
Experimental: To determine whether transdifferentiation into ciNSC5, neural progenitor cells, occurred similarly even in MSCs of different origins when human UCB-MSCs were treated with YJ101, YJ102, or YJ103 for 5 days, the expression of neuronal markers in differentiated ciNSC5 was confirmed by immunochemical assay using MSCs from human adipose-derived mesenchymal stem cells (AD-MSCs), human bone marrow-derived mesenchymal stem cells ([…]) and human umbilical cord blood-derived mesenchymal stem cells (UCB-MSCs; Promo Cells). Specifically, AD-MSC (StemPro™ Human Adipose-Derived Stem Cell, Gibco, Passage #6) was incubated in a MesenPRO RS™ medium, BM-MSC (ATCC, Passage #6) was incubated in a Mesenchymal Stem Cell Basal Medium for Adipose, Umbilical and Bone Marrow-derived MSC (Cat. PCS-500-030, ATCC) medium, and UCB-MSC (Promo Cell, Passage #6) was incubated in a CellCor™ CD MSC (Cat. YSP001, Xell Therapeutics) medium, and then dispensed at 2.1×10^4 cells/well in a 12-well plate with an 18 mm cover glass (circular) (DMSO control group was dispensed at 3.5×10^3 cells/well). […] The culture medium was removed, washed with PBS, and then fixed with 4% paraformaldehyde at room temperature for 10 minutes. After washed three times with PBS, the cells were permeabilized with PBS-T containing 0.5% Triton X-100 for 10 minutes, washed with PBS-T three times for 10 minutes each, and then blocked with a blocking solution (PBS-T containing 5% BSA and 5% goat serum) for 1 hour. Thereafter, the cells were treated with anti-Tuj1 antibody (Cat. 801201, BioLegend) diluted 1/5000 in a blocking solution and incubated at 4° C. overnight. The next day, the cells were washed 10 times for 10 minutes each with PBS-T, and then treated with anti-mouse IgG-cy3 diluted 1/2000 in a blocking solution, and incubated for 1 hour in dark conditions. Next, the cells were washed 10 times for 10 minutes each with PBS-T, mounted with a mounting solution containing DAPI, and then observed with a confocal microscope.

CtBP1 [1] = molecular target: T2, CtBP1 (Homo sapiens, UniProt Q13363); assay: Immunoprecipitation, CtBP1 oligomerization in UCB-MSCs; type: cell-based; design: expressed in transfected cells; host or cells: human UCB-MSC; details: YJ102 20 μM; FLAG-CtBP1 + HA-CtBP1, 48 hours
Experimental: as §1

CtBP1 [2] = molecular target: T2, CtBP1; assay: DARTS assay, CtBP1; type: binding; design: expressed in transfected cells; host or cells: human UCB-MSC (Kang Stem Cell), lysate
Experimental: To identify proteins binding to compounds of the present invention, YJ101 (Chemical Formula 1), YJ102 (Chemical Formula 2), and YJ103 (Chemical Formula 3), in human umbilical cord blood-derived mesenchymal stem cells (UCB-MSCs), DART assay was performed. Specifically, UCB-MSCs (Kang Stem Cell, Passage #6) were dispensed into a 100 mm culture dish and incubated in a KSB-3 medium (Cat. K3901, Kang Stem Cell) containing 10% FBS (Cat. 16000044), and then collected and washed with PBS. Thereafter, the cells were added with an IP50 lysis buffer [50 mM Tris-HCl (pH 7.4), 150 mM NaCl, 2 mM MgCl2, and 0.1% NP40], sonicated, and centrifuged at 13,000×g for 10 minutes at 4° C. to obtain the supernatant. The supernatant was added with 1/10 volume of 10×TNC buffer [500 mM Tris-HCl (pH 8.0), 500 mM NaCl, and 100 mM CaCl2)], and protein concentration was measured using a Bradford method. Thereafter, 9 μl of a cell lysate and 1 μl of YJ101 (20 or M), YJ102 (20 or 30 μM), or YJ103 (20 or 40 μM) were mixed in a microcentrifuge tube and incubated at room temperature for 1 hour. A control group was treated with 1 μl of DMSO. After incubation, 1 μl (1 mg/ml) of Pronase (Cat. 10 165 921 001, Roche) diluted to 1 mg/ml using a 1×TNC buffer was added to the microcentrifuge tube and incubated at 37° C. for 15 minutes. After incubation, ⅕ volume of a 5×SDS-PAGE loading buffer was added, heated at 100° C. for 5 minutes, and then SDS-PAGE and Coomassie blue staining were performed. In addition, UCB-MSCs were dispensed at 4×10^5 cells/ml in a 60 mm culture dish, and after 24 hours, 4 μg of FLAG-CtBP1 or FLAG-CtBP2 DNA was transfected using 4 μl of jetPRIME. After 48 hours, the cells were collected, and proteins were extracted and quantified using the same method as above. DARTS assay was performed with the cell lysate of CtBP1 and Y102 labeled with FLAG, and Western blot assay was performed with a flag antibody (Cat. F3165, Sigma).

CtBP1-CtBP2 heteromerization (CtBP1-CtBP2): had no effect | oligomerization of CtBP1 (CtBP1 [1]): induced oligomerization | overexpressed CtBP1 (flag-CtBP1) protection from degradation by pronase (DARTS) (CtBP1 [2]; FLAG-CtBP1 transfected UCB-MSC lysate, YJ101 (20 or M), YJ102 (20 or 30 μM), YJ103 (20 or 40 μM)): protected | CtBP1 protection from degradation by pronase (DARTS) (CtBP1 [2]; endogenous CtBP1, UCB-MSC lysate, YJ102 20 or 30 μM): protected | binding to CtBP1 (CtBP1 [2]; human UCB-MSC): bound to CtBP1
SMILES: CCc1ccc(N(C(=O)COC)c2nc3cc(Cl)ccc3o2)cc1 [YJ102]
expression of Tuj1 (UCB-MSC (Promo Cell)): increased
